Test results from PubChem BioAssay AID602446 (National Center for Advancing Translational Sciences (NCATS), 2012).

System: Caco-2 permeability efflux ratio
Test: High Content Assay for Compounds that inhibit the Assembly of the Perinucleolar Compartment: Efflux Ratio
Text: The perinucleolar compartment (PNC) is a non-membrane-bound nuclear subdomain that is associated with but structurally distinct from the nucleolus. The PNC is a heritable trait, in which the number of PNCs per cell in daughter cells often mimics that of their mother cells. The PNC is heterogeneous in shape, is stable through interphase, disassembles during mitosis, and reassembles in early G1. The PNC is concentrated with newly synthesized RNA polymerase III (pol III) RNAs (MRP RNA, RNAse P H1 RNA, hY RNAs[hY1, 2, 5], Alu RNA, and SRP [7SL] RNA) and RNA binding proteins (nucleolin, PTB, CUG-BP, KSRP, Raver1, Raver2, and Rod).
In collaboration between Sui Huang from Northwestern University and the NCGC, a high content assay was developed and screened. The hits were then tested in follow-up assays. High-content tumor cell migration assays in 3-dimensional extracellular matrices are powerful tools for modeling and understanding the biology of this critical step in the process of metastasis. However, most of the available methods are not amenable to the throughput required by studies of comparative pharmacology or small scale screening. […]
8. […] The T0, LY and T90, LY plates are read by FlexStation 3 at excitation of 485 nm and emission of 535 nm to determine LY permeability. […]

## N=c1c2c(-c3ccccc3)c(-c3ccccc3)n(Cc3ccccc3)c2ncn1C1CCC(O)CC1 (stereo unspecified)
  efflux ratio: 11
